For one assay, the target named is EGFR Del19/T790M/C797S (Homo sapiens, UniProt P00533, C797S/DEL746-750/T790M). As to the kind of experiment: Biochemical EGFR kinase inhibition assay (Lance Ultra TR-FRET), triple mutant del19/T790M/C797S. The method, boiled down: (§1)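 Kinase activity is measured by TR-FRET phosphopeptide detection. Compounds span 0.003 μM to 10 μM; the 1 h reaction at room temperature is quenched with EDTA, then labelled antibody (2 nM) is incubated 60 min before reading.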

A further assay deals with EGFR L858R/T790M/C797S (Homo sapiens, UniProt P00533, C797S/L858R/T790M). As to the kind of experiment: Biochemical EGFR kinase inhibition assay (Lance Ultra TR-FRET), triple mutant L858R/T790M/C797S. In short, it runs like this: as §1
A further assay has as its target EGFR Del19/C797S (Homo sapiens, UniProt P00533, C797S/DEL746-750). As to the kind of experiment: Biochemical EGFR kinase inhibition assay (Lance Ultra TR-FRET), double mutant del19/C797S. The method, boiled down:
as §1

A further assay has as its target EGFR L858R/C797S (Homo sapiens, UniProt P00533, C797S/L858R). As to the kind of experiment: Biochemical EGFR kinase inhibition assay (Lance Ultra TR-FRET), double mutant L858R/C797S. The method, boiled down:
as §1

A further assay has as its target EGFR wildtype (WT) (Homo sapiens, UniProt P00533). The assay can be described thus: Biochemical EGFR kinase inhibition assay (Lance Ultra TR-FRET), wildtype. The method, boiled down:
as §1

[1] abbreviates: IC50 Del19/T790M/C797S (nM), 100 μM ATP.
Setting [2] is: IC50 L858R/T790M/C797S (nM), 100 μM ATP.
[3] abbreviates: IC50 Del19/C797S (nM), 100 μM ATP.
Where [4] appears, read: IC50 L858R/C797S (nM), 100 μM ATP.
The mark [5] stands for this setting: Km ATP, read-out: IC50 Del19/T790M/C797S (nM), Km ATP.
Where [6] appears, read: Km ATP, read-out: IC50 L858R/T790M/C797S (nM), Km ATP.
Setting [7] is: Km ATP, read-out: IC50 Del19/C797S (nM), Km ATP.
Setting [8] is: Km ATP, read-out: IC50 L858R/C797S (nM), Km ATP.
[9] abbreviates: Km ATP, read-out: IC50 WT (nM), Km ATP.

Read-outs that look alike come from different tables or passages of the source.

This note sets out measurements from patent publication US11981658B2, “Substituted aminopyridine compounds as EGFR inhibitors” (YUHAN CORPORATION, priority 2021, dated 2024).

Chain of EGFR Del19/C797S (P00533 with tags, fused parts or gaps DEL746-750/C797S): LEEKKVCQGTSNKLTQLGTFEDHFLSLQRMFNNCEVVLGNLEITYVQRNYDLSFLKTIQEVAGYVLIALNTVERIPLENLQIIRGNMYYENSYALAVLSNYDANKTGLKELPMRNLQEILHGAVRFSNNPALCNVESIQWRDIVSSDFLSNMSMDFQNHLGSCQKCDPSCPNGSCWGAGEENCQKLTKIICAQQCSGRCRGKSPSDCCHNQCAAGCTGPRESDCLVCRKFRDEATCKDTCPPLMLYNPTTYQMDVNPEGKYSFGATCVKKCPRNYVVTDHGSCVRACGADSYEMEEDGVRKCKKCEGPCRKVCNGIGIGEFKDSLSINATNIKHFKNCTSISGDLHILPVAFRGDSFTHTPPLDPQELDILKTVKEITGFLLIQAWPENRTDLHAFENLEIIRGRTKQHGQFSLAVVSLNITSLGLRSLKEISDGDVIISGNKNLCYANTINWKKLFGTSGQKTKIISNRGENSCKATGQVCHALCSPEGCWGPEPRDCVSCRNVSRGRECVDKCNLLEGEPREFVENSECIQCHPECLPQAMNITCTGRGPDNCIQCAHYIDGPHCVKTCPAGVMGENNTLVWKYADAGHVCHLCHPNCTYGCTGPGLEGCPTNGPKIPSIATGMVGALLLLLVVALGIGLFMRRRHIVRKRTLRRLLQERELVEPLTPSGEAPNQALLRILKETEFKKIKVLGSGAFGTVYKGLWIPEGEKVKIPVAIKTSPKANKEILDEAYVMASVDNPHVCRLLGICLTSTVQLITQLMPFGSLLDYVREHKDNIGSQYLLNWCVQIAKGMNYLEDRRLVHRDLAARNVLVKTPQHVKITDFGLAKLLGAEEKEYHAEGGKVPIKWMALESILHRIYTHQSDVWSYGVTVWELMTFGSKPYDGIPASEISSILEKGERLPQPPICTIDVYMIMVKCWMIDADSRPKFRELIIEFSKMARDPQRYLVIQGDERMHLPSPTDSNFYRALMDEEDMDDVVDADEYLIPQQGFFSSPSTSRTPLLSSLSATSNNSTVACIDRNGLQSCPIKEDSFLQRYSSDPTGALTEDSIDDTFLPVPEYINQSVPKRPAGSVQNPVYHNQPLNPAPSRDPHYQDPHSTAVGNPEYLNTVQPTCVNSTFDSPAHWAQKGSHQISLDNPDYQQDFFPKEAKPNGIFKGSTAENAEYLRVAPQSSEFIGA
Chain of EGFR L858R/C797S (P00533 25-1210 C797S/L858R): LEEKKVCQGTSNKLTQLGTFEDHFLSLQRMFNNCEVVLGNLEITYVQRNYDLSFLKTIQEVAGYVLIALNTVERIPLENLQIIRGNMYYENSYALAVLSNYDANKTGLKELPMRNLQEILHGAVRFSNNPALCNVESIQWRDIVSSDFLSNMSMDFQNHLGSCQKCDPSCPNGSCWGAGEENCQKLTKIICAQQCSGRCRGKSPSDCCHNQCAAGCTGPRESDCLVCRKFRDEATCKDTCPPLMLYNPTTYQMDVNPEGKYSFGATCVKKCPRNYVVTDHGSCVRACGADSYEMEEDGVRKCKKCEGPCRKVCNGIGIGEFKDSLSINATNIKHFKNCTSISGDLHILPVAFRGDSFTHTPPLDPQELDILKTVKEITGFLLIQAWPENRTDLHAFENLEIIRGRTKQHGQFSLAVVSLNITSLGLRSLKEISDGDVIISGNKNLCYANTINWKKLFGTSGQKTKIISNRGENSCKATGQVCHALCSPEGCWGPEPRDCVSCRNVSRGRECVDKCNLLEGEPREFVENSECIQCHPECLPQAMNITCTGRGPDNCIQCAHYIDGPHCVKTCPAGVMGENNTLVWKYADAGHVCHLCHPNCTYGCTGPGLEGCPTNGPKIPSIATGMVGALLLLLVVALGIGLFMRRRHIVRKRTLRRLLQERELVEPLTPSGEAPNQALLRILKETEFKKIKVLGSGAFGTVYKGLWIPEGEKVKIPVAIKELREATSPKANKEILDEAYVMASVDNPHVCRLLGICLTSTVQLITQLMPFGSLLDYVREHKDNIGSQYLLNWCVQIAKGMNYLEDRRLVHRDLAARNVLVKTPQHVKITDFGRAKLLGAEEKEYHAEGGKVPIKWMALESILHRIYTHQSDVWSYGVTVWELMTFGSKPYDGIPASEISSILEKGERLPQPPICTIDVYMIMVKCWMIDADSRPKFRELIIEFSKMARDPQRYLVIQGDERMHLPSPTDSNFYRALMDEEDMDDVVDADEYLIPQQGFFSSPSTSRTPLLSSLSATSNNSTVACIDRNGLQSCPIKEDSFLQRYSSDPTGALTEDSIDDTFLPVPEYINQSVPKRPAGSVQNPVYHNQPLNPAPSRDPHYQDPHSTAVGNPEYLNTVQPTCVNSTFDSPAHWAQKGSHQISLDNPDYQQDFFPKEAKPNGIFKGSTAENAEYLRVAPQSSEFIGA
Chain of EGFR L858R/T790M/C797S (P00533 25-1210 T790M/C797S/L858R): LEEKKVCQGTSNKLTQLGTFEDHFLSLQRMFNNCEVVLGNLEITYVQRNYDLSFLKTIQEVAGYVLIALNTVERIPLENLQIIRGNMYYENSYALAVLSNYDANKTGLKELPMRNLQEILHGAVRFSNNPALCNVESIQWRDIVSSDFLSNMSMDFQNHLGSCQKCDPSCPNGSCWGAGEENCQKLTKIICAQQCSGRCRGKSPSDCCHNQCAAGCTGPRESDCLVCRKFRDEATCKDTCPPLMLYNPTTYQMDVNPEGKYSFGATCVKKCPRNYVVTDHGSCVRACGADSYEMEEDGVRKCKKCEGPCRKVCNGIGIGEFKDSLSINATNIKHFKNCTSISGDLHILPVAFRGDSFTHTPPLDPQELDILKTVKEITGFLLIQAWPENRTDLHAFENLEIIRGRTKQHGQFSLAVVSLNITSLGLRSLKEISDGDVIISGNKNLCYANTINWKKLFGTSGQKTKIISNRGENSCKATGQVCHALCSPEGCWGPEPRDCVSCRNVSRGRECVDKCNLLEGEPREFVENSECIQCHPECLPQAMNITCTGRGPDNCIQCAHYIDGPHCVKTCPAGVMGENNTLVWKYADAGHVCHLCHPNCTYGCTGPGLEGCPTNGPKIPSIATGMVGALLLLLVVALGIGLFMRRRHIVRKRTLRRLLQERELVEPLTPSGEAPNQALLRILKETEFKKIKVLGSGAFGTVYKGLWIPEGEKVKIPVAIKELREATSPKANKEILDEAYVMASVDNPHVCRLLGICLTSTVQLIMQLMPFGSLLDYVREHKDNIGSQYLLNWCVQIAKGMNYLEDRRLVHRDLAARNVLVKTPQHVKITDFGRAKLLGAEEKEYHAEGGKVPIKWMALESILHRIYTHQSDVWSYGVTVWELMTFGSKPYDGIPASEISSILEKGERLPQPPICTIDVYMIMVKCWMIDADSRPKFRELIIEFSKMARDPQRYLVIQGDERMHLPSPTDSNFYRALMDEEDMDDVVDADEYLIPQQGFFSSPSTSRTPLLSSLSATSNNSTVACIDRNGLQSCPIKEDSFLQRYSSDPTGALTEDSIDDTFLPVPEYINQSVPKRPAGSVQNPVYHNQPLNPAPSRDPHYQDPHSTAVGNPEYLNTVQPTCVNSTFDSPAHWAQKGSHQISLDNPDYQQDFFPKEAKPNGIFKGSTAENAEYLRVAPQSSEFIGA
Chain of EGFR Del19/T790M/C797S (P00533 with tags, fused parts or gaps DEL746-750/T790M/C797S): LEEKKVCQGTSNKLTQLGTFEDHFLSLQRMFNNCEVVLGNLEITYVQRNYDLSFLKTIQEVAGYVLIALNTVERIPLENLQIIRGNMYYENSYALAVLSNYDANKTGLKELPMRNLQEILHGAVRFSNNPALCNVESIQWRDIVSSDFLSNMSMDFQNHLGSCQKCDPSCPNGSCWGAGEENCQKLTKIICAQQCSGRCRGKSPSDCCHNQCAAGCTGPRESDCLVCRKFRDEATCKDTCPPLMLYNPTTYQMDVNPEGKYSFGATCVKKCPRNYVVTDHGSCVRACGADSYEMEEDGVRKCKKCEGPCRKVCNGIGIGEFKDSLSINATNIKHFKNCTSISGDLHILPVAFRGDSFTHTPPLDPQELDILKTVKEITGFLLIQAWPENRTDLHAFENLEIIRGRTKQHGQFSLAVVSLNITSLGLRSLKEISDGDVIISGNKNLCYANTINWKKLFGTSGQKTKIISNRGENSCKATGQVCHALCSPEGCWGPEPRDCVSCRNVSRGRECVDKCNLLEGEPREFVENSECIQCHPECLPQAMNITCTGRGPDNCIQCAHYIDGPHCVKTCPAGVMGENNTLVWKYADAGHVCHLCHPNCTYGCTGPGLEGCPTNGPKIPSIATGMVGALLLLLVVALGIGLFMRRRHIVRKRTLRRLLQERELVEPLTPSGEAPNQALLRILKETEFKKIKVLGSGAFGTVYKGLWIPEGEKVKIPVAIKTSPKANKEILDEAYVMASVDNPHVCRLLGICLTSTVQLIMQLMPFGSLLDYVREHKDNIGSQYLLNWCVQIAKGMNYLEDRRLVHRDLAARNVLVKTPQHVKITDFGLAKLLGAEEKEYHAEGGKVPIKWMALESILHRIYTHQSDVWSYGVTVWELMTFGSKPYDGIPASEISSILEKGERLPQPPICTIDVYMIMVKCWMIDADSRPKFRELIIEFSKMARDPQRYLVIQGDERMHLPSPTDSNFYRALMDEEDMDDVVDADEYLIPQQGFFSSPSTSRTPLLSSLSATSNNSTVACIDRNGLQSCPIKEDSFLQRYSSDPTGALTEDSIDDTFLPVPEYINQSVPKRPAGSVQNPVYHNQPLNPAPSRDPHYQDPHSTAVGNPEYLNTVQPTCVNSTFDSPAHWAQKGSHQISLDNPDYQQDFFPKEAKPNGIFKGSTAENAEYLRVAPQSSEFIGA

Take `CC1(CO)CCN(c2cc(Nc3ccnc(-c4cnn(S(=O)(=O)C5CC5)c4)n3)ncc2C#Cc2cnn(CC3CCCOC3)c2)CC1` (stereo not drawn) [Example 241, (1-(2-((2-(1-(Cyclopropylsulfonyl)-1H-pyrazol-4-yl)pyrimidin-4-yl)amino)-5-((1-((tetrahydro-2H-pyran-3-yl)methyl)-1H-pyrazol-4-yl)ethynyl)pyridin-4-yl)-4-methylpiperidin-4-yl)methanol]: the IC50 amounted to 2.1 nM at EGFR Del19/T790M/C797S (ATP at Km, read-out: IC50 Del19/T790M/C797S (nM), Km ATP); 2.5 nM against EGFR Del19/T790M/C797S (setting [1]); 0.8 nM at EGFR L858R/T790M/C797S (ATP at Km, read-out: IC50 L858R/T790M/C797S (nM), Km ATP); 3.9 nM against EGFR L858R/T790M/C797S (setting [2]); 1.2 nM at EGFR Del19/C797S (ATP at Km, read-out: IC50 Del19/C797S (nM), Km ATP); 1.7 nM against EGFR Del19/C797S (setting [3]). Further, the IC50 at EGFR L858R/C797S (ATP at Km, read-out: IC50 L858R/C797S (nM), Km ATP) worked out at 2.3 nM; at EGFR L858R/C797S (setting [4]) it was 17.5 nM; at EGFR wildtype (WT) (ATP at Km, read-out: IC50 WT (nM), Km ATP), 9.1 nM; at EGFR wildtype (WT) (IC50 WT (nM), 100 μM ATP), 4180 nM.
As to `O=S(=O)(C1CC1)n1cc(-c2nccc(Nc3cc(N[C@H]4CC[C@@H](CO)CC4)c(C#CC4C[C@@H]5CC[C@@H]4O5)cn3)n2)cn1` (stereo partly drawn) [Example 422, ((1s,4s)-4-((5-((7-Oxabicyclo[2.2.1]heptan-2-yl)ethynyl)-2-((2-(1-(cyclopropylsulfonyl)-1H-pyrazol-4-yl)pyrimidin-4-yl)amino)pyridin-4-yl)amino)cyclohexyl)methanol], the IC50 against EGFR Del19/T790M/C797S (setting [1]) was 0.4 nM; on EGFR Del19/T790M/C797S (setting [5]) it was 0.9 nM; at EGFR L858R/T790M/C797S (setting [2]), 0.5 nM; on EGFR L858R/T790M/C797S (setting [6]), 0.4 nM; at EGFR Del19/C797S (setting [3]) it was 2.6 nM; at EGFR Del19/C797S (setting [7]), 2.6 nM. The IC50 on EGFR L858R/C797S (setting [4]) turned out to be 59.4 nM; on EGFR L858R/C797S (setting [8]) it was 3.2 nM; against EGFR wildtype (WT) (IC50 WT (nM), 100 μM ATP), 6510 nM; on EGFR wildtype (WT) (setting [9]) it was 10.5 nM.
With `CS(=O)(=O)N1CCC(C#Cc2cnc(Nc3ccnc(-c4cnn(S(=O)(=O)C5CC5)c4)n3)cc2N[C@H]2CC[C@@H](CO)CC2)CC1` [Example 387, ((1s,4s)-4-((2-((2-(1-(Cyclopropylsulfonyl)-1H-pyrazol-4-yl)pyrimidin-4-yl)amino)-5-((1-(methylsulfonyl)piperidin-4-yl)ethynyl)pyridin-4-yl)amino)cyclohexyl)methanol], the IC50 against EGFR Del19/T790M/C797S (setting [1]) worked out at 0.6 nM; on EGFR Del19/T790M/C797S (setting [5]), 0.3 nM; against EGFR L858R/T790M/C797S (setting [2]), 0.7 nM; on EGFR L858R/T790M/C797S (setting [6]) it was 0.2 nM; against EGFR Del19/C797S (setting [3]), 4.4 nM; on EGFR Del19/C797S (setting [7]), 1.2 nM. The IC50 on EGFR L858R/C797S (setting [4]) was 36.7 nM; on EGFR L858R/C797S (setting [8]) it was 2.7 nM; against EGFR wildtype (WT) (IC50 WT (nM), 100 μM ATP), above 10000 nM; at EGFR wildtype (WT) (setting [9]), 9.5 nM.
Regarding `CC(=O)N1CCC(n2cc(C#Cc3cnc(Nc4ccnc(-c5cnn(S(=O)(=O)C6CC6)c5)n4)cc3N3CCC(=O)CC3)cn2)CC1` [Example 108, 1-(5-((1-(1-Acetylpiperidin-4-yl)-1H-pyrazol-4-yl)ethynyl)-2-((2-(1-(cyclopropylsulfonyl)-1H-pyrazol-4-yl)pyrimidin-4-yl)amino)pyridin-4-yl)piperidin-4-one], the IC50 against EGFR Del19/T790M/C797S (setting [1]) amounted to 1.2 nM; on EGFR Del19/T790M/C797S (Km ATP, read-out: IC50 Del19/T790M/C797S (nM) Km ATP) it was 1.1 nM; against EGFR L858R/T790M/C797S (setting [2]), 7.8 nM; on EGFR L858R/T790M/C797S (Km ATP, read-out: IC50 L858R/T790M/C797S (nM) Km ATP), 1.6 nM; on EGFR Del19/C797S (setting [3]), 29.8 nM; on EGFR Del19/C797S (Km ATP, read-out: IC50 Del19/C797S (nM) Km ATP), 25.5 nM. Besides, the IC50 on EGFR L858R/C797S (setting [4]) was 154 nM; at EGFR L858R/C797S (Km ATP, read-out: IC50 L858R/C797S (nM) Km ATP), 8.4 nM; on EGFR wildtype (WT) (IC50 WT (nM), 100 μM ATP), above 10000 nM; on EGFR wildtype (WT) (Km ATP, read-out: IC50 WT (nM) Km ATP), 126 nM.
As for `Cn1cc(C#Cc2cnc(Nc3ccnc(-c4cnn(S(=O)(=O)C5CC5)c4)n3)cc2N2CCC(C(C)(C)O)CC2)cn1` [Example 11, 2-(1-(2-((2-(1-(Cyclopropylsulfonyl)-1H-pyrazol-4-yl)pyrimidin-4-yl)amino)-5-((1-methyl-1H-pyrazol-4-yl)ethynyl)pyridin-4-yl)piperidin-4-yl)propan-2-ol], the IC50 on EGFR Del19/T790M/C797S (setting [1]) was 1.6 nM; against EGFR L858R/T790M/C797S (setting [2]), 1.2 nM; at EGFR Del19/C797S (setting [3]), 9.1 nM; at EGFR L858R/C797S (setting [4]) it was 28.5 nM; against EGFR wildtype (WT) (IC50 WT (nM), 100 μM ATP) it was above 10000 nM.
